A word on the IC50: it is the concentration needed to halve the response being measured. In general, Papp B→A refers to how fast a substance crosses the layer from the basolateral side. The term Papp denotes a coefficient for how fast a substance crosses the barrier. A higher Papp goes with ready permeation.

One series has as its system P-gp.
Assay: not given
As to conditions: Table S4, Doan et al. dataset; both assays positive or both negative; cited from earlier work.
As to `COc1ccc2c(c1)N(C[C@H](C)CN(C)C)c1ccccc1S2` [(R)-Levomeprazine], the P-gp interaction result is reported as “Y”.

Take `CNCCCC1c2ccccc2C=Cc2ccccc21` [Protriptylene]: the P-gp interaction entry is listed as “Y”.

In the case of `CN(C)C/C=C(/c1ccc(Br)cc1)c1cccnc1` [Zimeldine], the P-gp interaction result is on record as “N”.

Take `COCCc1ccc(OC[C@@H](O)CNC(C)C)cc1` [(S)-Metoprolol]: the P-gp interaction result was “N”.

On to `OC[C@@H](O)[C@@H](O)[C@H](O)[C@H](O)CO` [Mannitol], for which the P-gp interaction result is given as “N”.

Consider `NC(=O)N1c2ccccc2C=Cc2ccccc21` [Carbamazepine], for which the P-gp interaction result was “N”.

Regarding `Clc1cccc(Cl)c1N=C1NCCN1` [Clonidine], the P-gp interaction entry is “N”.

As to `CN(C)CCCN1c2ccccc2CCc2ccccc21` [Imipramine], the P-gp interaction result is “N”.

Take `COc1ccc2c(c1)c(CC(=O)O)c(C)n2C(=O)c1ccc(Cl)cc1` [Indomethacin]: the P-gp interaction result was “N”.

Consider `CNS(=O)(=O)Cc1ccc2[nH]cc(CCN(C)C)c2c1` [Sumatriptan], for which the P-gp interaction result is “N”.

`O=C(O)c1cc(/N=N/c2ccc(S(=O)(=O)Nc3ccccn3)cc2)ccc1O` [Sulfasalazine_a*, Sulfasalazine]: the P-gp interaction entry is on record as “N”.

Consider `C=CCOc1ccccc1OC[C@@H](O)CNC(C)C` [(S)-Oxprenolol], for which the P-gp interaction entry is recorded as “N”.

For the molecule `N=C(N)N/N=C/c1c(Cl)cccc1Cl` [Guanabenz], the P-gp interaction result is listed as “N”.

`OC(CCN1CCCCC1)(c1ccccc1)C1CC2C=CC1C2` [(S)-Biperiden]: the P-gp interaction entry is recorded as “N”.

Consider (S)-Levomeprazine, for which the P-gp interaction result is listed as “Y”.

In the case of `c1ccc2c(c1)Sc1ccccc1N2C[C@H]1CN2CCC1CC2` [(R)-Mequitazine], the P-gp interaction entry is “Y”.

As to `C=CCOc1ccccc1OC[C@H](O)CNC(C)C` [(R)-Oxprenolol], the P-gp interaction entry was “N”.

Regarding `C=CCN1CC[C@]23c4c5ccc(O)c4O[C@H]2C(=O)CC[C@@]3(O)[C@H]1C5` [Naloxone], the P-gp interaction result is “N”.

Turning to `COCCc1ccc(OC[C@H](O)CNC(C)C)cc1` [(R)-Metoprolol], the P-gp interaction entry is recorded as “N”.

As for `CNC(C)(C)Cc1ccccc1` [Mephentermine], the P-gp interaction entry is recorded as “N”.

Take `OC(CCN1CCCCC1)(c1ccccc1)C1CC2C=CC1C2` [(R)-Biperiden]: the P-gp interaction entry is “N”.

As to `N=C(N)NC(=O)Cc1c(Cl)cccc1Cl` [Guanfacine], the P-gp interaction result is reported as “N”.

Consider `NC12CC3CC(CC(C3)C1)C2` [Amantadine], for which the P-gp interaction result is on record as “N”.

Regarding `c1ccc2c(c1)Sc1ccccc1N2CC1CN2CCC1CC2` [(S)-Mequitazine], the P-gp interaction result is reported as “Y”.

For the molecule `Cc1c(O)cccc1C(=O)N[C@@H](CSc1ccccc1)[C@H](O)CN1C[C@H]2CCCC[C@H]2C[C@H]1C(=O)NC(C)(C)C` [Nelfinavir], the P-gp interaction result is given as “Y”.

For `CC(C)(C)NC(=O)[C@@H]1C[C@@H]2CCCC[C@@H]2CN1C[C@@H](O)[C@H](Cc1ccccc1)NC(=O)[C@H](CC(N)=O)NC(=O)c1ccc2ccccc2n1` [Saquinavir], the P-gp interaction entry is on record as “Y”.

As for `O=C(O)c1cc(/N=N/c2ccc(S(=O)(=O)Nc3ccccn3)cc2)ccc1O` [Sulfasalazine_b*, Sulfasalazine], the P-gp interaction entry is “N”.

The same series, now with this note: Table S5, Doan et al. dataset; both assays positive or both negative; cited from earlier work.
`O=C(O)c1cc(/N=N/c2ccc(S(=O)(=O)Nc3ccccn3)cc2)ccc1O` [Sulfasalazine]: the P-gp interaction result is “N”.

The same series, now with this note: not told; cited from earlier work.
Turning to `CCCC(C)(COC(N)=O)COC(N)=O` [Meprobamate], the P-gp interaction result is “N”.

As to `Cc1cc(=O)n(-c2ccccc2)n1C` [Antipyrine], the P-gp interaction entry is “N”.

Take `CC(=O)C[C@@H](c1ccccc1)c1c(O)c2ccccc2oc1=O` [(S)-Warfarin]: the P-gp interaction entry is recorded as “N”.

For `CN(C)CC[C@@H](c1ccc(Cl)cc1)c1ccccn1` [(S)-Chlorpheniramine], the P-gp interaction result was “N”.

`CC(C)(C)c1ccc([C@H](O)CCCN2CCC(C(O)(c3ccccc3)c3ccccc3)CC2)cc1` [(R)-terfenadine]: the P-gp interaction entry is listed as “Y”.

With `CN(C)CC[C@H](c1ccc(Cl)cc1)c1ccccn1` [(R)-Chlorpheniramine], the P-gp interaction entry was “N”.

In the case of `CN(C)CC[C@@H](c1ccccc1)c1ccccn1` [(S)-Pheniramine], the P-gp interaction entry is reported as “N”.

Take `CN(C)CCO[C@@](C)(c1ccccc1)c1ccccn1` [(S)-Doxylamine]: the P-gp interaction entry is “N”.

For the molecule `CN(C)C(=O)C(CCN1CCC(O)(c2ccc(Cl)cc2)CC1)(c1ccccc1)c1ccccc1` [Loperamide], the P-gp interaction result is recorded as “Y”.

Turning to `CN(C)CCO[C@](C)(c1ccccc1)c1ccccn1` [(R)-Doxylamine], the P-gp interaction result is on record as “N”.

With `CN(C)CC[C@H](c1ccccc1)c1ccccn1` [(R)-Pheniramine], the P-gp interaction result is given as “N”.

Turning to `CN[C@@]1(c2ccccc2Cl)CCCCC1=O` [(R)-Ketamine], the P-gp interaction entry is “N”.

Consider `CN[C@]1(c2ccccc2Cl)CCCCC1=O` [(S)-Ketamine], for which the P-gp interaction entry is recorded as “N”.

As to `CC(C)(C)c1ccc([C@@H](O)CCCN2CCC(C(O)(c3ccccc3)c3ccccc3)CC2)cc1` [(S)-terfenadine], the P-gp interaction result is “Y”.

Turning to `COc1ccc(CCN2CCC(Nc3nc4ccccc4n3Cc3ccc(F)cc3)CC2)cc1` [Astemizole], the P-gp interaction result is given as “Y”.

Turning to `O=C1CN=C(c2ccccc2)c2cc([N+](=O)[O-])ccc2N1` [Nitrazepam], the P-gp interaction entry is “N”.

Take `CC(=O)C[C@H](c1ccccc1)c1c(O)c2ccccc2oc1=O` [(R)-Warfarin]: the P-gp interaction entry is given as “N”.

Regarding `Nc1c2c(nc3ccccc13)CCCC2` [Tacrine], the P-gp interaction entry is reported as “N”.

The next series concerns MDCK-MDR1 cells. The series is described as follows: MDCK-MDR1 monolayer permeability assay. As to conditions: 2 µM, 150 min.
Description: (§1) Permeability measurements were performed by Wuxi Apptec, using the following procedures.
(§2) Test compounds were diluted with the transport buffer (HBSS, pH 7.4) from a 10 mM stock solution to a concentration of 2 µM and applied to the apical (A) or basolateral (B) side of the cell monolayer. […] In addition, the efflux ratio of each compound was also determined. Test and reference compounds were quantified by LC-MS/MS analysis based on the peak area ratio of analyte/IS.
(§3) The apparent permeability coefficient Papp (cm/s) was calculated using the equation: [drawing 1] where dCr/dt is the cumulative concentration of compound in the receiver chamber as a function of time (µM/s); Vr is the solution volume in the receiver chamber (0.075 mL on the apical side, 0.25 mL on the basolateral side); A is the surface area for the transport, i.e. 0.084 cm^2 for the area of the monolayer; C0 is the initial concentration in the donor chamber (µM).
(§4) The efflux ratio (ER) was calculated using the equation: [drawing 2]
(§5) Percent recovery was calculated using the equation: [drawing 3] Where Vd is the volume in the donor chambers (0.075 mL on the apical side, 0.25 mL on the basolateral side); Cd and Cr are the final concentrations of transport compound in donor and receiver chambers, respectively. Cc is the compound concentration in the cell lysate solution (µM), and Vc is the volume of insert well (0.075 mL in this assay).
(§6) Permeability determinations were performed in triplicate and are reported as mean values.
With `N#CCNC(=O)[C@H](Cc1c[nH]cn1)NC(=O)OCc1ccccc1` [Compound 9], the “Mean Efflux Ratio” value was determined as 5.8.

Still in this series, the particulars now being: 2 µM, 150 min, 37°C, pH 7.4, triplicate mean.
In the case of `N#CCNC(=O)[C@H](Cc1c[nH]cn1)NC(=O)OCc1ccccc1` [Compound 9], the “Mean Papp A to B” value is on record as 0.51 10^−6 cm/s.

The test system of the next series is P-gp.
Assay: not given
Also noted: method as in Aller paper [29]. As to conditions: reported value; ref Aller paper [29]; read-out: IC50 for inhibition of verapamil-stimulated ATPase activity; cited from earlier work.
For QZ59-RRR, the IC50 was 4.8 ± 2.6 µM.

Test system in the next series: not listed separately
The series is described as follows: in vitro. As to conditions: dog, MDCK-MDR1, pH 7.4.
Description: as §1, §2, §3, §4, §5, §6
`N#CCNC(=O)[C@H](Cc1c[nH]cn1)NC(=O)OCc1ccccc1` [Compound 9]: the Papp B→A at 150 min, 2 µM was found to be 2.9 ×10⁻⁶ cm/s and the Papp at 150 min, 2 µM worked out at 0.5 ×10⁻⁶ cm/s.

A further series has as its system P-gp.
Assay: not given
To be noted: metabolites with favorable scores reassigned to the binders set; cited from earlier work.
Regarding `NC(Cc1cc(I)c(Oc2cc(I)c(O)c(I)c2)c(I)c1)C(=O)O` (stereo not shown) [Thyroxine**, Thyroxine], the “Reported interaction with P-gp” value is given as “interact with P-gp”.

As for `CC(=O)[C@H]1CC[C@H]2[C@@H]3CCC4=CC(=O)CC[C@]4(C)[C@H]3CC[C@]12C` [Progesterone**, Progesterone], the “Reported interaction with P-gp” value is reported as “interact with P-gp”.

Turning to `CC(C)CCC[C@@H](C)[C@H]1CC[C@H]2[C@@H]3CC=C4C[C@@H](O)CC[C@]4(C)[C@H]3CC[C@]12C` [Cholesterol**, Cholesterol], the “Reported interaction with P-gp” value is recorded as “interact with P-gp”.

With `C=C1CC[C@H](O)C/C1=C/C=C1\CCC[C@]2(C)[C@@H]([C@H](C)CCCC(C)C)CC[C@@H]12` [Vitamin D3**, Vitamin D3], the “Reported interaction with P-gp” value was “interact with P-gp”.
